US12667559B2, “Dihydronaphthyridinone compound, and preparation method therefor and medical use thereof” (GENFLEET THERAPEUTICS (SHANGHAI) INC., priority 2020, dated 2026)
Read-outs that look alike come from different tables or passages of the source.

Test system: U937 cells
Experiment: Inhibitory activity against TNF-α induced programmed cell necrosis (U937 cells, CellTiter-Glo)
Assay type: cell-based, human
Conditions: read-out: U937 IC50
[1] = U937 cells, human TNF-α and Q-VD-Oph induced necrosis, 48 hours, survival rate
[2] = Homo sapiens, U-937, 48 h, U937 cells, human TNF-α and Q-VD-Oph induced necrosis, 48 hours, survival rate
[3] = U-937, U937 cells, human TNF-α and Q-VD-Oph induced necrosis, 48 hours, survival rate

SMILES | IC50 [2] | further results
C[C@@](O)(C(=O)N1C[C@@H](N2CCc3ncc(-c4cc(C(F)(F)F)c5c(N)ncnn45)cc3C2=O)[C@@H](F)C1)C(F)(F)F (mixture of isomers) [Z27, cis-3-(4-amino-5-(trifluoromethyl)pyrrolo[2,1-f][1,2,4]triazin-7-yl)-6-(4-fluoro-1-((R)-3,3,3-trifluoro-2-hydroxy-2-methylpropionyl)pyrrolidin-3-yl)-7,8-dihydro-1,6-naphthyridin-5(6H)-one] | – | IC50 [1]: 6 nM
C[C@@](O)(C(=O)N1C[C@@H](N2CCc3ncc(-c4cc(C(F)(F)F)c5c(N)ncnn45)cc3C2=O)[C@@H](F)C1)C(F)(F)F (single isomer, unassigned) [Z27-2] | – | IC50 [1]: 1.9 nM
Cc1cc(-c2cnc3c(c2)C(=O)N([C@@H]2CN(C(=O)[C@@](C)(O)C(F)(F)F)C[C@@H]2F)CC3)n2ncnc(N)c12 (single isomer, unassigned) [Z30-2] | – | IC50 [1]: 3.4 nM
C[C@H](c1ccc(F)cc1)n1cc(N2CCc3ncc(-c4cc(C(F)(F)F)c5c(N)ncnn45)cc3C2=O)cn1 (single isomer, unassigned) [Z35-1] | 0.3 nM | –
C[C@@H](c1ccc(F)cc1)n1cc(N2CCc3ncc(-c4cc(C(F)(F)F)c5c(N)ncnn45)cc3C2=O)cn1 (single isomer, unassigned) [Z35-2] | 0.2 nM | –
C[C@@H](c1ccc(F)cc1)n1cc(N2CCc3ncc(-c4ccn5nc(N)nc5c4)cc3C2=O)cn1 (single isomer, unassigned) [Z73] | – | IC50 [1]: 34 nM
CC(=O)Nc1cn2nc(-c3cnc4c(c3)C(=O)N(c3cnn(C(C)c5ccc(F)cc5)c3)CC4)ccc2n1 (stereo not drawn) [Z1] | 2.8 nM | –
CC(=O)Nc1cn2nc(-c3cnc4c(c3)C(=O)N(Cc3cc(F)cc(F)c3OC3CCOC3)CC4)ccc2n1 (stereo not drawn) [Z3, N-(6-(6-(3,5-difluoro-2-((tetrahydrofuran-3-yl)oxy)benzyl)-5-oxo-5,6,7,8-tetrahydro-1,6-naphthyridin-3-yl)imidazo[1,2-b]pyridazin-2-yl)acetamide] | 1.4 nM | –
CC(=O)Nc1cn2nc(-c3cnc4c(c3)C(=O)N(Cc3cc(F)ccc3OC3CCCC3)CC4)ccc2n1 [Z6, N-(6-(6-(2-(cyclopentyloxy)-5-fluorobenzyl)-5-oxo-5,6,7,8-tetrahydro-1,6-naphthyridin-3-yl)imidazol[1,2-b]pyridazin-2-yl)acetamide] | 0.4 nM | –
CC(=O)Nc1cn2nc(-c3cnc4c(c3)C(=O)N(C(C)c3ccccc3OC(F)(F)F)CC4)ccc2n1 (stereo not drawn) [Z7, N-(6-(5-oxo-6-(1-(2-(trifluoromethoxy)phenyl)ethyl)-5,6,7,8-tetrahydro-1,6-naphthyridin-3-yl)imidazo[1,2-b]pyridazin-2-yl)acetamide] | 3.9 nM | –
CC(=O)Nc1cn2nc(-c3cnc4c(c3)C(=O)N(Cc3cccc(OC(F)(F)F)c3)CC4)ccc2n1 [Z8, N-(6-(5-oxo-6-(3-(trifluoromethoxy)benzyl)-5,6,7,8-tetrahydro-1,6-naphthyridin-3-yl)imidazo[1,2-b]pyridazin-2-yl)acetamide] | 40.3 nM | –
CC(=O)Nc1cn2nc(-c3cnc4c(c3)C(=O)N(Cc3cc(OC(F)(F)F)ccc3F)CC4)ccc2n1 [Z9, N-(6-(6-(2-fluoro-5-(trifluoromethoxy)benzyl)-5-oxo-5,6,7,8-tetrahydro-1,6-naphthyridin-3-yl)imidazo[1,2-b]pyridazin-2-yl)acetamide] | 10.4 nM | –
O=C1c2cc(-c3ccncc3)cnc2CCN1Cc1cc(F)cc(F)c1OC1CCOCC1 [Z11, 6-(3,5-difluoro-2-((tetrahydro-2H-pyran-4-yl)oxy)benzyl)-3-(pyridin-4-yl)-7,8-dihydro-1,6-naphthyridin-5(6H)-one] | 31.2 nM | –
O=C1c2cc(-c3ccn4ncnc4c3)cnc2CCN1Cc1cc(F)cc(F)c1OC1CCOCC1 [Z13, 3-([1,2,4]triazolo[1,5-a]pyridin-7-yl)-6-(3,5-difluoro-2-((tetrahydro-2H-pyran-4-yl)oxy)benzyl)-7,8-dihydro-1,6-naphthyridin-5(6H)-one] | 1.7 nM | –
Cn1c(N)nc2ccc(-c3cnc4c(c3)C(=O)N(Cc3cc(OC(F)(F)F)ccc3F)CC4)cc21 [Z14, 3-(2-amino-1-methyl-1H-benzo[d]imidazol-6-yl)-6-(2-fluoro-5-(trifluoromethoxy)benzyl)-7,8-dihydro-1,6-naphthyridin-5(6H)-one] | – | IC50 (Homo sapiens, U-937, 48 h): 10.2 nM
Nc1nc2ccc(-c3cnc4c(c3)C(=O)N(Cc3cc(OC(F)(F)F)ccc3F)CC4)cc2o1 [Z16, 3-(2-aminobenzo[d]oxazol-6-yl)-6-(2-fluoro-5-(trifluoromethoxy)benzyl)-7,8-dihydro-1,6-naphthyridin-5(6H)-one] | – | IC50 [3]: 10.7 nM
Nc1nc2cc(-c3cnc4c(c3)C(=O)N(Cc3cc(OC(F)(F)F)ccc3F)CC4)ccc2o1 [Z17, 3-(2-aminobenzo[d]oxazol-5-yl)-6-(2-fluoro-5-(trifluoromethoxy)benzyl)-7,8-dihydro-1,6-naphthyridin-5(6H)-one] | – | IC50 [3]: 57.5 nM

SMILES | IC50 [2] | further results
Nc1nc2ccc(-c3cnc4c(c3)C(=O)N(Cc3cc(OC(F)(F)F)ccc3F)CC4)cc2[nH]1 [Z18, 3-(2-amino-1H-benzo[d]imidazol-6-yl)-6-(2-fluoro-5-(trifluoromethoxy)benzyl)-7,8-dihydro-1,6-naphthyridin-5(6H)-one] | – | IC50 [3]: 70.2 nM
CC(=O)Nc1cn2nc(-c3cnc4c(c3)C(=O)N(Cc3cc(F)ccc3CN3CCOCC3)CC4)ccc2n1 [Z19] | – | IC50 [1]: 34.7 nM
CC(=O)Nc1cn2nc(-c3cnc4c(c3)C(=O)N(Cc3cc(F)cc(F)c3OC3CC3)CC4)ccc2n1 [Z20, N-(6-(6-(2-cyclopropoxy-3,5-difluorobenzyl)-5-oxo-5,6,7,8-tetrahydro-1,6-naphthyridin-3-yl)imidazo[1,2-b]pyridazin-2-yl)acetamide] | – | IC50 [3]: 4.4 nM
CC(=O)Nc1cn2nc(-c3cnc4c(c3)C(=O)N(Cc3cc(F)ccc3OC3CCOCC3)CC4)ccc2n1 [Z21, N-(6-(6-(5-fluoro-2-((tetrahydro-2H-pyran-4-yl)oxy)benzyl)-5-oxo-5,6,7,8-tetrahydro-1,6-naphthyridin-3-yl)imidazo[1,2-b]pyridazin-2-yl)acetamide] | – | IC50 (Homo sapiens, U-937, 48 h): 0.6 nM
CC(=O)Nc1cn2nc(-c3cnc4c(c3)C(=O)N(Cc3cc(F)ccc3-c3cnn(C)c3)CC4)ccc2n1 [Z23, N-(6-(6-(5-fluoro-2-(1-methyl-1H-pyrazol-4-yl)benzyl)-5-oxo-5,6,7,8-tetrahydro-1,6-naphthyridin-3-yl)imidazo[1,2-b]pyridazin-2-yl)acetamide] | – | IC50 [3]: 24.3 nM
Nc1ncnn2c(-c3cnc4c(c3)C(=O)N(Cc3cc(OC(F)(F)F)ccc3F)CC4)cc(C(F)(F)F)c12 [Z24, 3-(4-amino-5-(trifluoromethyl)pyrrolo[2,1-f][1,2,4]triazin-7-yl)-6-(2-fluoro-5-(trifluoromethoxy)benzyl)-7,8-dihydro-1,6-naphthyridin-5(6H)-one] | – | IC50 [3]: 36.5 nM
CC(=O)Nc1cn2nc(-c3cnc4c(c3)C(=O)N(Cc3ncccc3OC3CCOCC3)CC4)ccc2n1 [Z28, N-(6-(5-oxo-6-((3-((tetrahydro-2H-pyran-4-yl)oxy)pyridyl-2-yl)methyl)-5,6,7,8-tetrahydro-1,6-naphthyridin-3-yl)imidazo[1,2-b]pyridazin-2-yl)acetamide] | – | IC50 [1]: 12.7 nM
Cc1cc(-c2cnc3c(c2)C(=O)N([C@@H]2CN(C(=O)[C@@](C)(O)C(F)(F)F)C[C@@H]2F)CC3)n2ncnc(N)c12 [Z30, Cis-3-(4-amino-5-methylpyrrolo[2,1-f][1,2,4]triazin-7-yl)-6-(4-fluoro-1-((R)-3,3,3-trifluoro-2-hydroxy-2-methylpropionyl)pyrrolidin-3-yl)-7,8-dihydro-1,6-naphthyridin-5(6H)-one] | – | IC50 [1]: 9.1 nM
C[C@@](O)(C(=O)N1C[C@@H](N2CCc3ncc(-c4ccc5c(N)ncnn45)cc3C2=O)[C@@H](F)C1)C(F)(F)F [Z31, cis-3-(4-aminopyrrolo[2,1-f][1,2,4]triazin-7-yl)-6-(4-fluoro-1-((R)-3,3,3-trifluoro-2-hydroxy-2-methylpropionyl)pyrrolidin-3-yl)-7,8-dihydro-1,6-naphthyridin-5(6H)-one] | 18.2 nM | –
C[C@@](O)(C(=O)N1C[C@@H](F)[C@@H](N2CCc3ncc(-c4ccc5c(N)ncnn45)cc3C2=O)C1)C(F)(F)F [Z31-1] | 7.4 nM | –
C[C@@](O)(C(=O)N1CC[C@H](N2CCc3ncc(-c4cc(C(F)(F)F)c5c(N)ncnn45)cc3C2=O)C1)C(F)(F)F [Z32] | 26.8 nM | –
CC(C)(O)C(=O)N1CC(F)C(N2CCc3ncc(-c4cc(C(F)(F)F)c5c(N)ncnn45)cc3C2=O)C1 (stereo not drawn) [Z33, cis-3-(4-amino-5-(trifluoromethyl)pyrrolo[2,1-f][1,2,4]triazin-7-yl)-6-(4-fluoro-1-(2-hydroxy-2-methylpropionyl)pyrrolidin-3-yl)-7,8-dihydro-1,6-naphthyridin-5(6H)-one] | 338 nM | –
CC(c1ccc(F)cc1)n1cc(N2CCc3ncc(-c4cc(C(F)(F)F)c5c(N)ncnn45)cc3C2=O)cn1 (stereo not drawn) [Z35] | 0.3 nM | –
Nc1ncnn2c(-c3cnc4c(c3)C(=O)N(C3CN(C(=O)c5ccc(F)cc5)CC3F)CC4)cc(C(F)(F)F)c12 (stereo not drawn) [Z36, cis-3-(4-amino-5-(trifluoromethyl)pyrrolo[2,1-f][1,2,4]triazin-7-yl)-6-(4-fluoro-1-(4-fluorobenzoyl)pyrrolidin-3-yl)-7,8-dihydro-1,6-naphthyridin-5(6H)-one] | 45.3 nM | –
O=C(Nc1cn2nc(-c3cnc4c(c3)C(=O)N(Cc3cc(F)cc(F)c3OC3CCOCC3)CC4)ccc2n1)C1CC1 [Z37, N-(6-(6-(3,5-difluoro-2-((tetrahydro-2H-pyran-4-yl)oxy)benzyl)-5-oxo-5,6,7,8-tetrahydro-1,6-naphthyridin-3-yl)imidazo[1,2-b]pyridazin-2-yl)cyclopropanecarboxamide] | 0.5 nM | –
[2H]C([2H])([2H])C(=O)Nc1cn2nc(-c3cnc4c(c3)C(=O)N(Cc3cc(F)cc(F)c3OC3CCOCC3)CC4)ccc2n1 [Z38, N-(6-(6-(3,5-difluoro-2-((tetrahydro-2H-pyran-4-yl)oxy)benzyl)-5-oxo-5,6,7,8-tetrahydro-1,6-naphthyridin-3-yl)imidazo[1,2-b]pyridazin-2-yl)acetamide-2,2,2-d3] | – | IC50 [3]: 1.3 nM
